The supplement of paper PMC4862054

How the values were obtained:
[1] = tested on: SK-BR-3; conditions: 72 h
In short: (§1)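 In this assay, breast cancer cell lines spent 72 h with compound at 5 concentrations in 10-fold steps over a compound-specific 10,000-fold range. The first readout was cell death by CellTox Green fluorescence, and the second was viability by CellTiter-Glo luminescence, each normalised per plate to 0.1 % DMSO and a positive kill control. EC50 came from the dose-response curves, censored at the top concentration.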

[2] = tested on: CAL-120; conditions: 72 h
In short: as §1

[3] = tested on: MCF-10A; conditions: 72 h
In short: as §1

[4] = tested on: BT-474; conditions: 72 h
In short: as §1

[5] = tested on: MDA-MB-468; conditions: 72 h
In short: as §1

[6] = tested on: CAL-51; conditions: 72 h
In short: as §1

[7] = tested on: Hs578T; conditions: 72 h
In short: as §1

[8] = tested on: CAL-85-1; conditions: 72 h
In short: as §1

[9] = tested on: MDA-MB-436; conditions: 72 h
In short: as §1

[10] = tested on: MDA-MB-231; conditions: 72 h
In short: as §1

[11] = tested on: MDA-MB-453; conditions: 72 h
In short: as §1

[12] = tested on: BT-549; conditions: 72 h
In short: as §1

[13] = tested on: SK-BR-3; experiment: drug sensitivity score (DSS), CellTiter-Glo (DSS (AUC-based score)); higher = stronger drug effect (viability inhibition or cytotoxicity); extreme values may be limits of the assay; conditions: incubation time: 72 h
In short: (§2)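 Each compound occupied 5 concentrations in 10-fold steps over its own 10,000-fold range in 384-well plates, into which breast cancer cell lines were seeded as 20 µl suspension. Following 72 h of incubation, CellTox Green fluorescence (485/520 nm) was measured, and CellTiter-Glo luminescence was measured after 10 min at room temperature. Plates were individually normalised to 0.1 % DMSO and a positive kill control. From the area under the fitted dose-response curve, a drug sensitivity score was calculated.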

[14] = tested on: CAL-120; experiment: as above; conditions: incubation time: 72 h
In short: as §2

[15] = tested on: BT-474; experiment: as above; conditions: incubation time: 72 h
In short: as §2

[16] = tested on: MDA-MB-468; experiment: as above; conditions: incubation time: 72 h
In short: as §2

[17] = tested on: CAL-51; experiment: as above; conditions: incubation time: 72 h
In short: as §2

[18] = tested on: Hs578T; experiment: as above; conditions: incubation time: 72 h
In short: as §2

[19] = tested on: HCC1143; experiment: as above; conditions: incubation time: 72 h
In short: as §2

[20] = tested on: CAL-85-1; experiment: as above; conditions: incubation time: 72 h
In short: as §2

[21] = tested on: DU-4475; experiment: as above; conditions: incubation time: 72 h
In short: as §2

[22] = tested on: HCC1599; experiment: as above; conditions: incubation time: 72 h
In short: as §2

[23] = tested on: MDA-MB-231; experiment: as above; conditions: incubation time: 72 h
In short: as §2

[24] = tested on: HDQ-P1; experiment: as above; conditions: incubation time: 72 h
In short: as §2

[25] = tested on: MDA-MB-453; experiment: as above; conditions: incubation time: 72 h
In short: as §2

[26] = tested on: CAL-148; experiment: as above; conditions: incubation time: 72 h
In short: as §2

[27] = tested on: CAL-51; experiment: normalised viability (% of control), CellTiter-Blue; higher = more viable cells (about 100 = DMSO control); conditions: incubation time: 72 h
Procedure: (§3)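 DSRT, CellTiter-Blue viability, 72 h incubation. Signal is normalised to DMSO and benzethonium chloride controls. Value is the normalised response at dose 7.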

[28] = tested on: CAL-85-1; experiment: as above; conditions: incubation time: 72 h
Procedure: as §3

[29] = tested on: DU-4475; experiment: as above; conditions: incubation time: 72 h
Procedure: as §3

[30] = tested on: HDQ-P1; experiment: as above; conditions: incubation time: 72 h
Procedure: as §3

[31] = tested on: MDA-MB-453; experiment: as above; conditions: incubation time: 72 h
Procedure: as §3

[32] = tested on: CAL-148; experiment: as above; conditions: incubation time: 72 h
Procedure: as §3

[33] = tested on: HCC1937; conditions: 72 h
In short: as §1

| SMILES | EC50, CellTiter-Glo [1] | EC50, CellTiter-Glo [2] | EC50, CellTiter-Glo [3] | EC50, CellTiter-Glo [4] | EC50, CellTiter-Glo [5] | EC50, CellTiter-Glo [6] | EC50, CellTiter-Glo [7] | EC50, CellTiter-Glo [8] | EC50, CellTiter-Glo [9] | EC50, CellTiter-Glo [10] | EC50, CellTiter-Glo [11] | EC50, CellTiter-Glo [12] | drug sensitivity score [13] | drug sensitivity score [14] | drug sensitivity score [15] | drug sensitivity score [16] | drug sensitivity score [17] | drug sensitivity score [18] | drug sensitivity score [19] | drug sensitivity score [20] | drug sensitivity score [21] | drug sensitivity score [22] | drug sensitivity score [23] | drug sensitivity score [24] | drug sensitivity score [25] | drug sensitivity score [26] | normalised viability ([27]; 100 nM) | normalised viability ([28]; 100 nM) | normalised viability ([29]; 100 nM) | normalised viability ([30]; 100 nM) | normalised viability ([31]; 100 nM) | normalised viability ([32]; 100 nM) | EC50, CellTiter-Glo [33] | normalised viability ([27]; 1000 nM) | normalised viability ([28]; 1000 nM) | normalised viability ([29]; 1000 nM) | normalised viability ([30]; 1000 nM) | normalised viability ([31]; 1000 nM) | normalised viability ([32]; 1000 nM) |
| --- | --- | --- | --- | --- | --- | --- | --- | --- | --- | --- | --- | --- | --- | --- | --- | --- | --- | --- | --- | --- | --- | --- | --- | --- | --- | --- | --- | --- | --- | --- | --- | --- | --- | --- | --- | --- | --- | --- | --- |
| O=C1NC(=O)[C@@H](c2cn3c4c(cccc24)CCC3)[C@@H]1c1c[nH]c2ccccc12 [Tivantinib] | 387 nM | 991 nM | 318 nM | > 1000 nM | 613 nM | 744 nM | 519 nM | 528 nM | 391 nM | 554 nM | 552 nM | 639 nM | 4.51 | 0.91 | 0.701 | 2.74 | 1.38 | 3.41 | 2.06 | 3.66 | 0.839 | 0.956 | 1.39 | 0 | 4.48 | 1.93 | 104% | 77.2% | 109% | 106% | 78.1% | 112% | – | – | – | – | – | – | – |
| CC[C@]1(O)C[C@H]2CN(CCc3c([nH]c4ccccc34)[C@@](C(=O)OC)(c3cc4c(cc3OC)N(C=O)[C@H]3[C@@](O)(C(=O)OC)[C@H](OC(C)=O)[C@]5(CC)C=CCN6CC[C@]43[C@@H]65)C2)C1 [Vincristine] | 2.33 nM | 3.26 nM | 2.93 nM | 7.55 nM | 2.18 nM | 57.3 nM | 16.2 nM | 2.7 nM | 11.6 nM | 11.6 nM | 6.53 nM | 1.71 nM | 27.7 | 11.1 | 11.5 | 23 | 11.7 | 16.6 | 13.6 | 19.2 | 6.4 | 20 | 11.5 | 7.83 | 10.5 | 12.7 | 27% | 43.9% | 34.1% | 36.1% | 34.3% | 16% | 2.89 nM | 10.3% | 34.7% | 8.18% | 43.1% | 36.4% | 26% |
| COc1ccc(-c2ccc3c(N4CCOC[C@@H]4C)nc(N4CCOC[C@@H]4C)nc3n2)cc1CO [AZD8055] | 7.23 nM | 37.5 nM | 61 nM | 121 nM | 43.3 nM | 45.4 nM | 57.5 nM | 31.8 nM | 11.6 nM | 73.8 nM | 24.6 nM | 30.8 nM | 30.3 | 23.8 | 13.7 | 22.2 | 23.4 | 20.2 | 20.2 | 22.2 | 16.5 | 5.62 | 16.8 | 20.9 | 22.2 | 22.8 | – | – | – | – | – | – | 100 nM | 10.8% | 23.8% | 15.2% | 27.2% | 14.4% | 5.6% |
| CN1CCN(CCOc2cc(OC3CCOCC3)c3c(Nc4c(Cl)ccc5c4OCO5)ncnc3c2)CC1 [Saracatinib] | 2120 nM | > 10000 nM | 354 nM | 2010 nM | 1840 nM | 805 nM | 2330 nM | 953 nM | > 10000 nM | 901 nM | 1360 nM | 1600 nM | 2.63 | 2.85 | 6.52 | 3.3 | 5.08 | 2.32 | 2.8 | 8.75 | 0 | 2.67 | 8.36 | 9.63 | 3.51 | 1.84 | – | – | – | – | – | – | > 10000 nM | 60.9% | 51.4% | 102% | 40.6% | 86.5% | 83.9% |
| C/C(=C\c1csc(C)n1)[C@@H]1C[C@@H]2O[C@]2(C)CCC[C@H](C)[C@H](O)[C@@H](C)C(=O)C(C)(C)[C@@H](O)CC(=O)O1 [Patupilone] | 38.9 nM | 73.8 nM | 57.4 nM | 219 nM | 7.53 nM | 8.54 nM | 57.3 nM | 18.9 nM | 14.9 nM | 149 nM | 84.9 nM | 9.09 nM | 15.1 | 5.48 | 5.69 | 18.2 | 19.1 | 12.7 | 13.5 | 16.3 | 6.14 | 2.26 | 6.83 | 4.83 | 5.87 | 10.2 | 12.2% | 28.6% | 7.8% | 41.5% | 20.4% | 17.9% | > 1000 nM | – | – | – | – | – | – |
| NS(=O)(=O)OC[C@@H]1C[C@@H](n2ccc3c(N[C@H]4CCc5ccccc54)ncnc32)C[C@@H]1O [Pevonedistat] | 25.7 nM | 448 nM | – | 769 nM | 68.5 nM | 91.2 nM | 679 nM | 191 nM | 294 nM | 953 nM | 780 nM | 168 nM | 21.7 | 7.98 | 7.25 | 17.8 | 22.8 | 5.18 | 8.48 | 11.9 | 22.5 | 14 | 6.52 | 2.51 | 3.83 | 0 | – | – | – | – | – | – | 2940 nM | – | – | – | – | – | – |
| Cn1c(=O)n(-c2ccc(C(C)(C)C#N)cc2)c2c3cc(-c4cnc5ccccc5c4)ccc3ncc21 [Dactolisib] | 14 nM | 9.42 nM | 28.5 nM | 9.85 nM | 23.1 nM | 14.3 nM | 13.6 nM | 8.05 nM | 3.68 nM | 11.8 nM | 12 nM | 9.82 nM | 16.2 | 17.9 | 9.24 | 13.2 | 16.8 | 14.9 | 12.7 | 15.3 | 11.4 | 2.8 | 11.7 | 10.7 | 14.7 | 14.6 | – | – | – | – | – | – | 13 nM | – | – | – | – | – | – |
| CN(C)CCN1C(=O)c2cccc3cc(N)cc(c23)C1=O [Amonafide] | 5430 nM | 2700 nM | 8420 nM | 1660 nM | 7960 nM | 5570 nM | 1920 nM | 9240 nM | 7370 nM | 2840 nM | – | 3270 nM | 3.61 | 3.03 | 5.06 | 2.59 | 2.87 | 2.97 | 1.61 | 2.16 | 5.38 | 0.856 | 3.06 | 0 | 0 | 4.44 | – | – | – | – | – | – | > 10000 nM | 99.1% | 84% | 86.8% | 93.8% | 81.7% | 74.5% |
